Test results as given in patent publication US9994528B2, “Certain amino-pyridines and amino-triazines, compositions thereof, and methods for their use” (Cytokinetics, Inc., priority 2010, dated 2018).

Tested on: rabbit skeletal myofibrils (approximately 90% fast fibers)
Assay: Activation of fast skeletal myofibrils (PUMA coupled-enzyme ATPase assay)
Format: biochemical
Conditions: AC1.4 = concentration at which the compound increased the enzymatic activity by 40%; myofibril suspension at calcium level pCa25; PM12 buffer pH 6.8
Experimental: Preparation of fast skeletal myofibrils. Rabbit skeletal myofibrils were prepared based upon the method of Herrmann et al. (Biochem. 32(28):7255-7263(1993). Myofibrils were prepared from rabbit psoas muscle purchased from Pel-Freez Biologicals (Arkansas) within 2 days of ordering, stored on ice. Minced muscle was homogenized in 10 volumes of ice-cold “standard” buffer (50 mM Tris, pH 7.4, 0.1 M potassium acetate, 5 mM KCl, 2 mM DTT, 0.2 mM PMSF, 10 μM leupeptin, 5 μM pepstatin, and 0.5 mM sodium azide) containing 5 mM EDTA and 0.5% Triton X-100 using an Omni-Macro homogenizer. Myofibrils were recovered by low speed centrifugation (3000 rpm for 10 minutes) and washed 2 times in the Triton X-100 containing buffer to ensure removal of cellular membrane. Following the Triton washes, myofibrils were washed 3 times in “standard” buffer containing 2 mM magnesium acetate. A final wash in assay buffer (12 mM PIPES, pH 6.8, 60 mM KCl, 1 mM DTT) was performed and brought to 10% sucrose for flash freezing in liquid nitrogen and storage at −80° C.
Activation of Fast Skeletal Myofibrils. Fast fiber activators were identified by measuring the enzymatic activity of muscle myofibril preparations using the proprietary PUMA™ (see, e.g., U.S. Pat. Nos. 6,410,254, 6,743,599, 7,202,051, and 7,378,254) assay system. Myofibril preparations consisted of rabbit skeletal muscle (approximately 90% fast fibers) that had been mechanically homogenized and washed with a detergent (triton X-100) to remove cellular membranes. This preparation retained all of the sarcomeric components in a native conformation and the enzymatic activity was still regulated by calcium. Compounds were tested using a myofibril suspension and a level of calcium sufficient to increase enzymatic activity of the myofibrils to 25% of their maximal rate (termed pCa25). Enzymatic activity was tracked via a pyruvate kinase and lactate dehydrogenase-coupled enzyme system. This assay regenerates myosin-produced ADP into ATP by oxidizing NADH, producing an absorbance change at 340 nm. The buffering system was 12 mM Pipes, 2 mM MgCl2, 1 mM DTT at pH 6.8 (PM12 buffer).
Using procedures similar to those described herein, utilizing reagents and intermediates commercially available (e.g., Sigma-Aldrich,) or readily synthesized by one of skill in the art, the compounds in Table 2 were synthesized, characterized and tested. AC1.4 values were determined according to the procedure described in Example 25, and the reported median AC1.4 values are as follows: A=<1 uM; B=1-10 uM; C=10-20 uM; D=>20 uM.

Compound | Mean AC1.4
2-{2-[3-({[3-fluoro-1-(3-fluoro(2- pyridyl))cyclobutyl]methyl}amino)-1,2,4- triazin-6-yl]-1,3-thiazoI-5-yl}acetamide | C (C=10-20 uM)
CC(C)(Nc1ncc(-n2cc(C(N)=O)cn2)nn1)c1ncccc1Cl [1-(3-{[1-(3-chloro(2-pyridyl))-isopropyl]amino}-1,2,4-triazin-6-yl)pyrazole-4-carboxamide] | D (D=>20 uM)
CC(C)(CNc1ncc(-n2cc(C(N)=O)cn2)nn1)c1ccc(F)cc1 [1-(3-{[2-(4-fluorophenyl)-2-methylpropyl]amino}-1,2,4-triazin-6-yl)pyrazole-4-carboxamide] | B (B=1-10 uM)
NC(=O)c1cnn(-c2cnc(NC3(c4ncccc4F)CCC3)nn2)c1 [1-(3-{[(3-fluoro-2-pyridyl)cyclobutyl]amino}-1,2,4-triazin-6-yl)pyrazole-4-carboxamide] | D (D=>20 uM)
CC(C)(Nc1ncc(-n2cc(C(N)=O)cn2)nn1)c1cccc(OC(F)F)n1 [1-[3-({1-[6-(difluoromethoxy)(2-pyridyl)]-isopropyl}amino)-1,2,4-triazin-6-yl]pyrazole-4-carboxamide] | B (B=1-10 uM)
CC(C)(Nc1ncc(-c2cccc(CC(N)=O)c2)nn1)c1ncccc1F [2-[3-(3-{[1-(3-fluoro(2-pyridyl))-isopropyl]amino}-1,2,4-triazin-6-yl)phenyl]acetamide] | D (D=>20 uM)
CC(C)(Nc1ncc(-c2ncc(C(N)=O)s2)nn1)c1cccc(OC(F)F)n1 [2-[3-({1-[6-(difluoromethoxy)(2-pyridyl)]-isopropyl}amino)-1,2,4-triazin-6-yl]-1,3-thiazole-5-carboxamide] | B (B=1-10 uM)
CC(C)(Nc1ncc(-c2cc(CNC(=O)CN)ccc2F)nn1)c1ncccc1F [2-amino-N-{[4-fluoro-3-(3-{[1-(3-fluoro(2-pyridyl))-isopropyl]amino}(1,2,4-triazin-6-yl))phenyl]methyl}acetamide] | B (B=1-10 uM)
CC(C)(CNc1ccc2cc(C(N)=O)ccc2n1)c1ccc(F)cc1 [2-{[2-(4-fluorophenyl)-2-methylpropyl]amino}quinoline-6-carboxamide] | B (B=1-10 uM)
CC(C)(Nc1ncc(-c2cccc(C(N)=O)c2)nn1)c1ncccc1Cl [3-(3-{[1-(3-chloro(2-pyridyl))-isopropyl]amino}-1,2,4-triazin-6-yl)benzamide] | B (B=1-10 uM)
CC(C)(Nc1ncc(-c2cccc(C(N)=O)c2)nn1)c1ncccc1F [3-(3-{[1-(3-fluoro(2-pyridyl))-isopropyl]amino}-1,2,4-triazin-6-yl)benzamide] | B (B=1-10 uM)
CC(C)(CNc1ncc(-c2cc(C(N)=O)ccc2F)nn1)c1ncccc1Cl [3-(3-{[2-(3-chloro(2-pyridyl))-2-methylpropyl]amino}(1,2,4-triazin-6-yl))-4-fluorobenzamide] | B (B=1-10 uM)
NC(=O)c1cccc(-c2cnc(NCC3(c4ccccn4)CCC3)nn2)c1 [3-(3-{[(2-pyridylcyclobutyl)methyl]amino}-1,2,4-triazin-6-yl)benzamide] | B (B=1-10 uM)
CC(C)(CNc1cnc(-c2cccc(C(N)=O)c2)nn1)c1ccc(F)cc1 [3-(6-{[2-(4-fluorophenyl)-2-methylpropyl]amino}-1,2,4-triazin-3-yl)benzamide] | B (B=1-10 uM)
CC(C)(CNc1ccc(CC(O)CO)cn1)c1ccc(F)cc1 (stereo not shown) [3-(6-{[2-(4-fluorophenyl)-2-methylpropyl]amino}-3-pyridyl)propane-1,2-diol] | D (D=>20 uM)
NC(=O)c1cccc(-c2ccc(NCCc3ccc(F)cc3)nc2)c1 [3-(6-{[2-(4-fluorophenyl)ethyl]amino}-3-pyridyl)benzamide] | D (D=>20 uM)
C[C@@H](CNc1ccc(-c2cccc(C(N)=O)c2)cn1)c1ccc(F)cc1 [3-(6-{[(2R)-2-(4-fluorophenyl)propyl]amino}-3-pyridyl)benzamide] | B (B=1-10 uM)
C[C@H](CNc1ccc(-c2cccc(C(N)=O)c2)cn1)c1ccc(F)cc1 [3-(6-{[(2S)-2-(4-fluorophenyl)propyl]amino}-3-pyridyl)benzamide] | B (B=1-10 uM)

Other lines, results leading:

Mean AC1.4 | Compound
D (D=>20 uM) | CC(C)(Nc1ncc(-n2cc(C(N)=O)cn2)nn1)c1ncccc1F [1-(3-{[1-(3-fluoro(2-pyridyl))-isopropyl]amino}-1,2,4-triazin-6-yl)pyrazole-4-carboxamide]
D (D=>20 uM) | CC(C)(CNc1ccc(C(O)CO)cn1)c1ccc(F)cc1 (stereo not shown) [1-(6-{[2-(4-fluorophenyl)-2-methylpropyl]amino}-3-pyridyl)ethane-1,2-diol]
B (B=1-10 uM) | NC(=O)c1cnn(-c2cnc(NCC3(c4ncccc4F)CCC3)nn2)c1 [1-[3-({[(3-fluoro-2-pyridyl)cyclobutyl]methyl}amino)-1,2,4-triazin-6-yl]pyrazole-4-carboxamide]
D (D=>20 uM) | CC(C)(Nc1ncc(-c2ncc(CC(N)=O)s2)nn1)c1ncccc1F [2-[2-(3-{[1-(3-fluoro(2-pyridyl))-isopropyl]amino}-1,2,4-triazin-6-yl)-1,3-thiazol-5-yl]acetamide]
D (D=>20 uM) | CC(C)(Nc1ncc(-c2ccc(F)c(C(N)=O)c2)nn1)c1ncccc1F [2-fluoro-5-(3-{[1-(3-fluoro(2-pyridyl))-isopropyl]amino}(1,2,4-triazin-6-yl))benzamide]
D (D=>20 uM) | CC(C)(Nc1ncc(-c2ccc(F)c(C(=O)O)c2)nn1)c1ncccc1F [2-fluoro-5-(3-{[1-(3-fluoro(2-pyridyl))-isopropyl]amino}(1,2,4-triazin-6-yl))benzoic acid]
C (C=10-20 uM) | N#Cc1cc(-c2cnc(NCC3(c4ncccc4F)CCC3)nn2)ccc1F [2-fluoro-5-[3-({[(3-fluoro(2-pyridyl))cyclobutyl]methyl}amino)(1,2,4-triazin-6-yl)]benzenecarbonitrile]
C (C=10-20 uM) | NC(=O)Cc1cnc(-c2cnc(NCC3(c4ncccc4F)CCC3)nn2)s1 [2-{2-[3-({[(3-fluoro-2-pyridyl)cyclobutyl]methyl}amino)-1,2,4-triazin-6-yl]-1,3-thiazol-5-yl}acetamide]
B (B=1-10 uM) | CC(C)(Nc1ncc(-c2cc(C(N)=O)ccc2F)nn1)c1ncccc1Cl [3-(3-{[1-(3-chloro(2-pyridyl))-isopropyl]amino}(1,2,4-triazin-6-yl))-4-fluorobenzamide]
B (B=1-10 uM) | CC(C)(CNc1ncc(-c2cc(C(=O)O)ccc2F)nn1)c1ncccc1Cl [3-(3-{[2-(3-chloro(2-pyridyl))-2-methylpropyl]amino}(1,2,4-triazin-6-yl))-4-fluorobenzoic acid]
B (B=1-10 uM) | CC(C)(CNc1ncc(-c2cccc(C(N)=O)c2)nn1)c1ccc(F)cc1 [3-(3-{[2-(4-fluorophenyl)-2-methylpropyl]amino}-1,2,4-triazin-6-yl)benzamide]
B (B=1-10 uM) | N#Cc1cccc(-c2cnc(NCC3(c4ccccn4)CCC3)nn2)c1 [3-(3-{[(2-pyridylcyclobutyl)methyl]amino}-1,2,4-triazin-6-yl)benzenecarbonitrile]
A (A=<1 uM) | CC(C)(CNc1ccc(-c2cccc(C(N)=O)c2)cn1)c1ccc(F)cc1 [3-(6-{[2-(4-fluorophenyl)-2-methylpropyl]amino}-3-pyridyl)benzamide]
